“Also recorded” adds a separate entry of the source.
Tests used:
[1] = test system: differentiating monocyte-derived human dendritic cells; experiment: DNA microarray in differentiating monocyte-derived dendritic cells; format: cell-based
Description: The generation and transcriptional analysis of differentiating DCs were performed as described previously [Szeles L et al. 2010]. Microarray data were deposited into the Gene Expression Omnibus database under accession no. GSE48573.
The generation and analysis of differentiating DCs were performed as described previously [Szeles L et al. 2010] with minor modifications. Briefly, human monocytes were isolated from healthy volunteer's buffy coat, obtained with a Regional Ethical Board permit from the Regional Blood Bank and isolated by Ficoll gradient centrifugation followed by immunomagnetic cell separation, and were cultured in the presence of GM-CSF and IL-4. Differentiating DCs were stimulated 18 h after […] by various agonists for 12 h. The ligands were used in the following concentrations: 10 μM (R)-9CDHRA, 10 μM (S)-9CDHRA, 1 μM 9cisRA, 100 nM LG100268, 1 μM GW3965, 1 μM Rosiglitazone (RSG), 1 μM GW1516, 100 nM AM580. Experiments were performed in biological triplicates. Samples were processed and hybridized to Human Genome U133 Plus 2.0 Arrays. Data were analysed using to GeneSpring 12.6.1 software. In detail, normalization was performed using RMA summarization algorithm. […] Microarray data were deposited into the Gene Expression Omnibus database under accession no. GSE48573.

[2] = test system: C57BL/6N mice; experiment: Chronic social defeat stress model, forced swim test; format: in vivo, mouse
Description: (§1) The forced swim paradigm was carried out between 1 pm and 4 pm in a 3-litre glass beaker half-filled with water at 22-23° C. (the water depth was 17 cm). All mice were tested only once in this task. To this end, each mouse was lowered gently into the water and the time of immobility was scored during a 6-minute testing period. The mouse was judged immobile when it floated in an upright position and made only small movements to keep its head above the water. After 6 min, the mouse was taken out of the water, left to dry under a red light lamp and returned to its home cage. The immobility scores of each animal were used as an index of despair behavior.
Social defeat stress procedure was a modified version of the protocol previously described (Berton, McClung et al. 2006). C57BL/6N mice were defeated chronically for 10 consecutive days. Every day they were exposed to the physical contact with an unfamiliar CD1 aggressor in its home cage for maximal interaction time of 5 minutes. After each session of physical stress, C57BL/6N and CD1 mice were separated by a perforated wall and maintained in sensory contact for 24 h. After the last session of stress, mice were transferred into new cages and housed separately throughout the behavioral tests period. C57BL/6N control mice, similarly to the experimental animals, were housed two per cage separated by a metal perforated wall. Every day, they were exposed to the physical contact for 5 minutes.
For behavioral analysis, 9CDHROL and 9CDHBC were dissolved in ethanol, and then mixed with sunflower oil, so that the final solution contained 3% ethanol. Vehicle treatments consisted of 3% ethanol solution in sunflower oil. For memory studies treatments with 9CDHRA were administered by intraperitoneal injections at volume/weight ratio 3 ml/kg at 7 am and 7 hours before the beginning of testing. For tests with animal model of chronic social defeat, different treatments were administered by intraperitoneal injections at volume/weight ratio 3 ml/kg at 10 mg/kg for each substance between 5-6 pm every second day of stress protocol immediately after the stress session starting from day 1 of the stress protocol.
as §1, with “paradigm (Dalvi and Lucki, 1999)” for “paradigm”, “2-litre” for “3-litre”
Social defeat stress procedure was a modified version of the protocol previously described (Berton et al. 2006). C57BL/6N mice were defeated chronically for 10 consecutive days. Every day they were exposed to the physical contact with an unfamiliar CD1 aggressor in its home cage for maximal interaction time of 5 minutes. After each session of physical stress, C57BL/6N and CD1 mice were separated by a perforated wall and maintained in sensory contact for 24 h. After the last session of stress, mice were transferred into new cages and housed separately throughout the behavioral tests period. […]

[3] = test system: human oligodendrocytes cell cultures; experiment: Metabolic conversion in human oligodendrocytes cell culture (HPLC-MS); format: in vitro ADME; conditions: for 9CDHRA levels in cells after treatment (metabolism / accumulation): 10^−6M, n=3
Outline: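 Cultured human oligodendrocytes at 80% confluency were treated with each retinoid or carotenoid at 10^−6 M for 18 h, with ethanol vehicle as control. Harvested cells were analysed by HPLC-MS for 9CDHRA levels, n=3 with standard deviation.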

[4] = target: T1, hRXRα LBD (Homo sapiens, UniProt P19793); experiment: Fluorescence quenching assay, binding to RXRα LBD
T1 sequence (P19793 223-462): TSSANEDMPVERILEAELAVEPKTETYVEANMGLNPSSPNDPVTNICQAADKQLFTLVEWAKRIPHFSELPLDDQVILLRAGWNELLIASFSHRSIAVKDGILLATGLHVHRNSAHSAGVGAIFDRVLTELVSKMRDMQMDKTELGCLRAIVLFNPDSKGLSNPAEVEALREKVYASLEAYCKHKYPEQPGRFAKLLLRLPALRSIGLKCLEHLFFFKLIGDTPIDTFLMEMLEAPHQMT
Description: Quenching of tryptophan fluorescence was monitored at 10° C. using 5 nm of excitation and 5 nm of emission slit-width.

[5] = test system: Rbp1−/−, Rxrγ−/− and WT mice; experiment: Forced swim test after acute treatment; format: in vivo, mouse; conditions: for immobility (despair) in the forced swim test: acute i.p. treatment 5-6 h before the test
Description: as §1
Vehicle treatments consisted of 3% ethanol and 3% DMSO solution in sunflower oil. Treatments were administered by intraperitoneal injections at volume/weight ratio 3 ml/kg between 8-10 am and 5-6 h before the test as previously validated (Wietrzych-Schindler M, 2011).
as §1, with “paradigm (Dalvi and Lucki, 1999)” for “paradigm”, “2-litre” for “3-litre”

CC(C=CC1=C(C)CCCC1(C)C)=CC=CC(C)CC(=O)O (stereo not drawn) [9CDHRA, 9-cis-13,14-dihydroretinoic acid]
expression of genes induced by AM580 (RAR-RXR target genes) [1]: also induced
transcripts regulated by LG268 (RXR-specific agonist) also regulated ([1]; 72 LG268 transcriptional targets): 68 out of 72
immobility time versus stressed, nontreated mice ([2]; 3 mg/kg): displayed anti-despair effects
immobility time in the forced swim test ([2]; stressed mice, 1 or 3 mg/kg during the stress protocol): decreased such immobility in stressed mice in a dose dependently manner; also recorded: efficiently normalized immobility time
9CDHRA levels in cells after treatment (metabolism / accumulation) [3]: strong accumulation
Kd [4]: 0.09 ± 0.02 µM

CC1=C(/C=C/C(C)=C\C=C\C(C)CCO)C(C)(C)CCC1 (stereo not drawn) [9CDHROL, 9-cis-13,14-dihydroretinol]
immobility time in the forced swim test ([2]; stressed mice, 10 mg/kg i.p. every second day of stress protocol, 10 mg/kg): decreased such immobility; also recorded: efficiently normalised immobility time
9CDHRA levels in cells after treatment (metabolism / accumulation) [3]: moderately but significantly metabolized
precursor substrate of 9CDHROL ([3]; in vitro): excellent precursor substrates

CC1=C(/C=C/C(C)=C\C=C\[C@H](C)CC(=O)O)C(C)(C)CCC1 [(R)-9CDHRA, (9Z,13R)-13,14-Dihydroretinoic Acid]
overlap in transcriptional changes with 9CRA [1]: about 80%
share of all transcripts regulated by 9CRA that are similarly regulated by (R)-9CDHRA [1]: 85%
transcripts similarly regulated by both (R)-9CDHRA and 9CRA ([1]; 10 μM (R)-9CDHRA, 1 μM 9CRA): 384
number of transcripts regulated ([1]; 10 μM (R)-9CDHRA, 1 μM 9CRA, 12 h, FC>2): 518
expression of genes that are direct targets of RXR permissive heterodimers (LXR-RXR, PPAR-RXR) and RAR-RXR ([1]; 9CDHRA 10 μM, 9CRA 1 μM, LG268 100 nM, GW3965 1 μM, RSG 1 μM, GW1516 1 μM, AM580 100 nM): induced the expression of genes; also recorded: induce the expression of many genes
immobility (despair) in the forced swim test ([5]; Rbp1−/− mice): reduce despair behavior; also recorded: reduced in dose dependent manner immobility
dose attaining maximal effect on immobility in the forced swim test ([5]; Rbp1−/− mice, acute treatment): 1 mg/kg
immobility time in the forced swim test ([5]; Rxrγ−/− mice, 2 mg treatment): 120 ± 25 s
Kd [4]: 0.09 ± 0.02 µM

CC1(C)CCC(C)(C)c2cc(C3(c4ccc(C(=O)O)cc4)OCCO3)ccc21 [UVI2108, reference compound]
immobility (despair) in the forced swim test ([5]; Rbp1−/− mice): reduced significantly immobility time
immobility time in the forced swim test, compared with 9CDHRA ([2]; stressed mice, UVI2108 during the stress protocol): comparable

Reference: patent US12029715B2, “Precursor compounds for providing retinoids of the vitamin A5 pathway and uses thereof” (UNIVERSITY OF DEBRECEN, priority 2015, dated 2024)
